# “Also recorded” adds a separate entry of the source. Like-named read-outs stand apart in the source and are kept apart here. Where no end group is shown, it is not given here.
# Assays:
# T cells = settings: cited from earlier work; for immunogenicity / T-cell responses / patients recognizing the peptide: Saeterdal et al., PNAS 2001; for immunogenicity / T-cell responses: tumour infiltrating Th cells, MSI+ tumours
# [1] = tested on: T-cells from PMBCs from healthy donors; test: T-cell proliferation after induction of T-cells with fsp2 (Example 5); format: cell-based, human; settings: one round of in vitro stimulation, FIG. 13
# Description: A similar protocol to that set out in Example 4 was used to test the immunogenicity of fsp6 (SEQ ID NOs: 24) and fsp7 (SEQ ID NO: 123). Fsp2 (SEQ ID NO: 21; 10 μM) was used to induce T-cells from PMBCs isolated from fresh buffy coats from four healthy donors. At day 14 after induction, a T-cell proliferation assay was carried out as in Example 4, using fsp2 (SEQ ID NO: 21), fsp6 (SEQ ID NO: 24) and fsp7 (SEQ ID NO: 123) as test peptides. The T-cell proliferation results after one round of in vitro stimulation are presented as stimulation index (SI) in FIG. 13. […] It is also expected, in view of the results shown in FIGS. 11 and 12, that a peptide having the sequence of fsp6 (SEQ ID NO: […]) but having a C-to-G amino acid substitution corresponding to that in fsp2 is also immunogenic and is useful as a vaccine or treatment against cancer.
# [2] = tested on: T cells (PBMC) from healthy donors; test: T-cell proliferation (3H-thymidine, SI) after in vitro stimulation of PBMC with cocktail fsp2+fsp4 (Example 4); format: cell-based, human; set-up: T cell proliferation (stimulation index, SI): immunogenicity: dose or concentration left out as unconfirmed; settings: for relative immunogenicity: FIGS. 10 and 11, compared with fsp3 and fsp4; for T cell proliferation (stimulation index, SI): immunogenicity: first and second round of in vitro stimulation with cocktail of fsp2 and fsp4, four healthy donors, FIGS. 10-12
# Description: Fresh buffy coats from four healthy donors were obtained from a blood bank.
# Peripheral blood mononuclear cells (PBMC) isolated from fresh buffy coats from four healthy donors were counted and suspended in DC medium to 15*10^6 cells/ml, and subsequently diluted with DC-medium to 4*10^6 cells/ml (Table 6).
# Four 24-well plates were used for each donor, with 4*10^6 cells per well (each well has a volume of 1 ml).
# Peptide cocktail: Solution of peptides fsp2+fsp4, containing […] of each peptide. 40 μl peptide solution was added to each well.
# The plates were incubated in a cell incubator for 14 days (37° C., 5% CO2). IL-2 and IL-7 were added on day 3. The cells were inspected daily.
# Test peptides: fsp2+fsp4 (SEQ ID NOs: 21 and 23), fsp1 (SEQ ID NO: 20), fsp2 (SEQ ID NO: 21), fsp3 (SEQ ID NO: 22), fsp4 (SEQ ID NO: 23), fsp5 (SEQ ID NO: 19).
# Negative controls: T cells, T cells+APC (without addition of test peptides)
# Cells and reagents were added to plate wells (in triplicate) as described in Tables 8 and 9 below. The total volume added to each well was 0.20 ml. • T cells (PBMC): 50 000 cells/well (0.25*10^6 cells/ml) • APC: Irradiated (30 Gy, 8 minutes) autologous feeder cells: 50 000 cells/well • (fspx): 0.2 nmol peptide/well (each peptide), concentration: […] peptide. (fsp was dissolved in DMSO before dilution to correct concentration)
# The plates were incubated in a cell incubator for 48 hours (37° C., 5% CO2).
# After incubation for 48 hours, 20 μl 3H-tThymidine solution (5 Ci/ml) was added to each well and the plates were incubated for approximately 17 hours (37° C., 5% CO2).
# After 17 hours the cells were harvested (Unifilters) and dried on the filters at 45° C. until completely dry. After covering the bottom of the Unifilters with adhesive covers (delivered with the Unifilters) 25 μl micro scintillation liquid was added to each well, the plate was covered with TopSeal and 3H-Thymidine uptake was measured as counts per minute (CPM) using a microplate scintillation counter.
# The T cell proliferation results after the first round of in vitro stimulation with the cocktail of fsp2 and fsp4 peptides are presented as stimulation index (SI) in FIG. 10. SI=mean CPM (triplicates) of (T cells+APC+test peptide(s)) divided by mean CPM (triplicates) of (T cells+APC). SI>1 indicates an increase in T-cell proliferation and SI 2 is a clear sign of immunogenicity.
# PBMCs harvested after the first in vitro stimulation were re-stimulated in vitro according to the protocol set out above, with 2×10^6 cells per well. T-cell proliferation was tested according to the protocol set out above.
# [3] = tested on: T-cells from PBMC bulk cultures of healthy donors; test: Peptide-specific T-cell proliferation after stimulation of PBMC with cocktail fsp2+fsp8+fsp9 (Example 7); format: cell-based, human; settings: FIGS. 16-18; for T-cell response: three donors; for T-cell response to the peptide alone: after only one round of stimulation with the peptide mixture
# Description: PBMCs isolated from buffy coats from four healthy donors (obtained from a blood bank) were suspended in complete CellGro DC medium to 15*10^6 cells/ml and diluted to 4*10^6 cells/ml (Table 14).
# On day 1, 1 ml of PBMC suspension (4×10^6 cells/ml) from each donor was transferred to wells of 24-well plates (4*10^6 cells per well) and 60 μl of the peptide cocktail (fsp2+fsp8+fsp9) stock solution (166.67 μM/each peptide) was added to each well. The plates were incubated in a cell incubator for 14 days. IL-2 and IL-7 was added on day 3 (0.50 ml DC medium containing 60 U/ml IL-2 and 15 ng/ml IL-7). The cells were inspected daily and DC medium with cytokines (IL-2, IL7) was refreshed according to in house laboratory routines.
# The in vitro stimulation of bulk cultures was repeated a further two times (i.e. a total of three stimulations) using PBMCs harvested after the preceding round of in vitro stimulation. Peptide specific T-cell proliferation was tested on day 14, after each round of stimulation, such that T-cell proliferation was tested on days 14, 28 and 42 after the first round of stimulation.
# The cells from the bulk cultures were harvested (5 minutes at 300×g centrifugation) and re-suspended in DC medium (5 ml). An aliquot of the 5 ml resuspension was diluted 5 times and the T-cells counted in order to calculate the volume required to provide 5×10^4 cells per well for the proliferation assay. T-cells from each donor were transferred (triplicates) to wells of 96-well plates (5×10^4 cells per well) together with autologous, irradiated (30 Gy for 8 minutes) PBMCs (5×10^4 cells per well) and test peptide(s) (final concentration 10 μM/each peptide). Negative controls were wells without test peptide(s) and positive controls were wells with SEC-3 (0.1 μg/ml) without test peptide(s). The cells (plates) were incubated for 48 hours (37° C./5% CO2). After 48 hours, 20 μL of 3H-Thymidine (3.7×104 Bq) was added to the cells and incubation was continued for 17 hours. The cells were harvested (Unifilters using the Filtermate 196 Harvester) and dried on the filters for approx. 4.5 hours at 45° C. The cells were counted (CPM) by using the standard in-house laboratory protocol (TopCount Packard microplate scintillation beta counter and run programme).
# Peptide-specific T-cell proliferation was measured after 14 days of stimulation of PBMC bulk cultures with a peptide cocktail containing fsp2, fsp8 and fsp9 (10 μM each peptide). Proliferation induced by each of the single peptides and the peptide cocktail was tested at a concentration of […] (each peptide).
# Peptide-specific T-cell proliferation was measured after 14 days of re-stimulation of PBMC with a peptide cocktail containing fsp2, fsp8 and fsp9 ([…] each peptide). T-cell proliferation induced by each of the single peptides and the peptide cocktail was tested. The single peptides were tested at a concentration of 10 μM. The peptide cocktail was tested using two different amounts of each peptide in the cocktail, namely, a peptide cocktail containing […] each peptide and a peptide cocktail containing 3.33 μM each peptide.
# Peptide-specific T-cell proliferation was measured after 14 days of a further re-stimulation of PBMC with a peptide cocktail containing fsp2, fsp8 and fsp9 ([…] each peptide). T-cell proliferation induced by each of the single peptides and the peptide cocktail was tested. The single peptides were tested at a concentration of 10 μM. […]
# [4] = tested on: T-cells from PMBCs of healthy donors; test: T-cell proliferation after stimulation of PMBCs with mixture fsp10, fsp11 and fsp13 (Example 8); format: cell-based, human; settings: donor 1, one round of in vitro stimulation (14 days), 10 μM; FIG. 19
# Description: Using a similar procedure to that used in Examples 4 and 7 above, PMBCs from four healthy donors were stimulated in vitro with a peptide mixture containing equimolar amounts (10 uM) of fsp10 (SEQ ID NO: 28), fsp11 (SEQ ID NO: 29) and fsp13 (SEQ ID NO: 31).
# After one round of stimulation (14 days), T-cells were harvested and tested for recognition of the peptide mixture, using single peptide concentrations of 10 μM. T-cell proliferation was measured as counts per minute (CPM) after uptake of ^3H-thymidine in a standard T cell proliferation assay.
# The PMBCs from the four healthy donors underwent a second round of in vitro stimulation, and T-cells were again harvested and tested for proliferation against the peptide mixture and the individual peptides. […] While it has, in the past, been considered that a SI value of greater than 2 is the criterion for indicating a T-cell response in a T-cell proliferation assay, this is only the case in subjects who have been vaccinated prior to the T-cell proliferation assay. Where a healthy subject has not been vaccinated before the T-cell proliferation assay (as in the present T-cell proliferation assay), it is not expected that a SI value of 2 or greater will be achieved. Therefore, in non-vaccinated, healthy subjects, an increase in the SI value above 1 is indicative of a T-cell response.
substance,measurement,setting,value
"AMTTSSSQKNITPAILTCC (listed as Homo sapiens) [p537, prior art peptide of mutTGFβR2]",immunogenicity / T-cell responses,T cells,not immunogenic
"KCIMKEKKSLVRLSSCV (listed as Homo sapiens) [fsp6, peptide of −1a frameshifted TGFβR2]",T-cell activation (SI),[1]; day 14,capable of activating T-cells
same,relative immunogenicity,[1],less immunogenic than fsp2
"KCIMKEKKSLVRLSSCVPVALMSA (listed as Homo sapiens) [fsp1, peptide of −1a frameshifted TGFβR2]",relative immunogenicity,[2],more immunogenic than peptides which do not comprise amino acids from the wild-type sequence of TGFβR2
same,"T cell proliferation (stimulation index, SI): immunogenicity",[2],stimulated T-cells induced from PMBCs
"KGIMKEKKSLVRLSSCVPVALMSA (not fully specified) [fsp2, modified peptide of −1a frameshifted TGFβR2]",relative immunogenicity,[2],more immunogenic than peptides which do not comprise amino acids from the wild-type sequence of TGFβR2
same,"T cell proliferation (stimulation index, SI): immunogenicity",[2],immunogenic and can activate T-cells
same,relative immunogenicity,[1],much more immunogenic than fsp7
same,T-cell response,[3],able to induce a T-cell response
"KKTLRNHLFLIRWIILTFLQKILK (listed as Homo sapiens) [fsp10, peptide of −1a frameshifted KIAA2018]","T-cell response (proliferation, CPM)",[4],did not stimulate T-cells
"KTILKKAGIGMCVKVSSIFFINKQK (listed as Homo sapiens) [fsp9, peptide of −1a frameshifted TAF1β]",T-cell response to the peptide alone,[3],induces a T-cell response
same,T-cell response,[3],able to induce a T-cell response
"PKCIMKEKKKSLVRLSSCV (listed as Homo sapiens) [p541, prior art peptide of mutTGFβR2]",immunogenicity / T-cell responses,T cells,able to induce T-cell responses in some patients
same,immunogenicity / T-cell responses,T cells; listed as p4541,immunogenic
"RNRIPAVLRTEGEPLHTPSVGMRET (listed as Homo sapiens) [fsp8, peptide of −1a frameshifted ASTE1]",T-cell response to the peptide alone,[3],induces a T-cell response
same,T-cell response,[3],able to induce a T-cell response
"SLVRLSSCV (listed as Homo sapiens) [p523, prior art peptide of mutTGFβR2]",immunogenicity,"T cells; EP1078000 FIG. 14, four rounds of stimulation of the T-cells",immunogenic
same,immunogenicity,"T cells; Linnebacher et al., FIG. 1",not immunogenic
"SLVRLSSCVPVALMSAMTTSSSQ (listed as Homo sapiens) [p538, prior art peptide of mutTGFβR2]",patients recognizing the peptide,T cells; patients having spontaneous MSI+ colon cancer,two of three
same,patients recognizing the peptide,T cells; patients with HNPCC,all three
same,immunogenicity / T-cell responses,T cells,highly immunogenic
"SPKCIMKEKKSLVRLSSCVPVA (listed as Homo sapiens) [P540, prior art peptide of mutTGFβR2]",immunogenicity / T-cell responses,T cells,able to induce T-cell responses in some patients; also recorded: immunogenic
"SSGVPVALMSAMTTSSSQKN (not fully specified) [fsp4, modified peptide of −1a frameshifted TGFβR2]","T cell proliferation (stimulation index, SI): immunogenicity",[2],immunogenic and can activate T-cells
fsp7: peptide of −1a frameshifted TGFβR2; same sequence as fsp2 but truncated at the N-terminus (VRLSSCVPVALMSA; listed as Homo sapiens),relative immunogenicity,[1],both fsp6 and fsp2 are much more immunogenic than fsp7

# Source: patent US20230203130A1, “A PEPTIDE COCKTAIL” (Hubro Therapeutics AS, priority 2020, published 2023)
